Data: US20250163070A1, “SPIRO COMPOUND AND APPLICATION THEREOF” (HITGEN INC., priority 2022, published 2025)

Target: T1, CRBN/DDB1 protein (Homo sapiens (Human), UniProt Q96SW2)
Assay: Inhibition of CRBN/DDB1 protein activity, fluorescence resonance energy transfer (FRET) method with FITC-labeled thalidomide analog
Type: binding
Conditions: 5.0 nM CRBN/DDB1, 50.0 nM FITC-labeled thalidomide analog, 25° C., pH 7.0
Source text: Experiment 1 Detection of Compounds Inhibition of CRBN/DDB1 Protein Activity (Using a Fluorescence Resonance Energy Transfer (FRET) Method)
Microplate reader (BMG PHERAstar FSX), ECHO (LABCYTE Echo 665), microplate thermostatic oscillator (Hangzhou Ruicheng Instrument Co., Ltd.), disodium hydrogen phosphate (Sigma-Aldrich (Shanghai) Trading Co., Ltd.), sodium dihydrogen phosphate (Sigma-Aldrich (Shanghai) Trading Co., Ltd.), bovine serum albumin (Sigma-Aldrich (Shanghai) Trading Co., Ltd.), Anti-6His-Tb crypate Gold (Cisbio Bioassays Company CISBIO), CRBN/DDB1 protein (HitGen Inc.), 384-well plate (Grenier Bio-one (Shanghai) Co., Ltd.).
The compound powders were dissolved in DMSO and serially diluted using ECHO. The resulting dilutions were individually added to 384-well reaction plates, ensuring that the final concentration of DMSO in the entire reaction system (10.0 μL) was 1.0%. An equal volume of DMSO was added as a control.
The CRBN/DDB1 protein was diluted to twice the required final concentration (5.0 nM) by addition of 20 mM disodium hydrogen phosphate, 20 mM sodium dihydrogen phosphate, 0.08% bovine serum albumin and a buffer with pH 7.0. […] The Anti-6His-Tb crypate Gold and FITC-labeled thalidomide analog were diluted to twice the required final concentration by addition of 20 mM disodium hydrogen phosphate, 20 mM sodium dihydrogen phosphate, 0.08% bovine serum albumin and the buffer with pH 7.0. The final concentration of Anti-6His-Tb crypate Gold was 0.2 nM, and the final concentration of the FITC-labeled thalidomide analog was 50.0 nM, so as to obtain a mixture of Anti-6His-Tb crypate Gold/FITC-labeled thalidomide analog. 5.0 μL of the mixture of Anti-6His-Tb crypate Gold/FITC-labeled thalidomide analog was individually added to the 384-well reaction plates, followed by centrifugation at 1000 rpm for 1 min. Then the reaction plates were incubated in the microplate thermostatic oscillator at 25° C. and 250 rpm for 30 min. After the reaction was completed, the fluorescence signal values in the 384-well reaction plates were read using the microplate reader (Ex=337 nm, Em=520/490 nm).
A solvent group (containing 5.0 nM CRBN/DDB1, 0.2 nM Anti-6His-Tb crypate Gold, 50.0 nM FITC-labeled thalidomide analog and 1.0% DMSO) was used as a negative control. A reaction buffer group (containing 0.2 nM Anti-6His-Tb crypate Gold, 50.0 nM FITC-labeled thalidomide analog and 1.0% DMSO) was used as the blank control.
The residual activity percentage at each concentration was calculated using the following formula: […]
A dose-effect curve was fitted using GraphPad 6.0 to calculate the IC50 value.

T1 sequence (Q96SW2 whole entry, species assumed): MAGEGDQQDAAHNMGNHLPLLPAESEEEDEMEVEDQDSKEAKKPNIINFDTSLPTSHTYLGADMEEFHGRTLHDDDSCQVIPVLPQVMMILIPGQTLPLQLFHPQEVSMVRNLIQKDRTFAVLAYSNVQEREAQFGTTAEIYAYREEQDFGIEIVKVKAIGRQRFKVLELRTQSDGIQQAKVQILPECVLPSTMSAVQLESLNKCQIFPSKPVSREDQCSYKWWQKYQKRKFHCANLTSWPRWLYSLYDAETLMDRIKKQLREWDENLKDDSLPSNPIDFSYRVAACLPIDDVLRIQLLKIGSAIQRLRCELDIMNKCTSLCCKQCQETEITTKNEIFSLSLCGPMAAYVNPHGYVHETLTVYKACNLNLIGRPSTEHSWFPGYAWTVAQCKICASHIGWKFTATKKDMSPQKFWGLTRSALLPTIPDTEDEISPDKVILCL
T1 sequence (Q16531 whole entry partner, species assumed): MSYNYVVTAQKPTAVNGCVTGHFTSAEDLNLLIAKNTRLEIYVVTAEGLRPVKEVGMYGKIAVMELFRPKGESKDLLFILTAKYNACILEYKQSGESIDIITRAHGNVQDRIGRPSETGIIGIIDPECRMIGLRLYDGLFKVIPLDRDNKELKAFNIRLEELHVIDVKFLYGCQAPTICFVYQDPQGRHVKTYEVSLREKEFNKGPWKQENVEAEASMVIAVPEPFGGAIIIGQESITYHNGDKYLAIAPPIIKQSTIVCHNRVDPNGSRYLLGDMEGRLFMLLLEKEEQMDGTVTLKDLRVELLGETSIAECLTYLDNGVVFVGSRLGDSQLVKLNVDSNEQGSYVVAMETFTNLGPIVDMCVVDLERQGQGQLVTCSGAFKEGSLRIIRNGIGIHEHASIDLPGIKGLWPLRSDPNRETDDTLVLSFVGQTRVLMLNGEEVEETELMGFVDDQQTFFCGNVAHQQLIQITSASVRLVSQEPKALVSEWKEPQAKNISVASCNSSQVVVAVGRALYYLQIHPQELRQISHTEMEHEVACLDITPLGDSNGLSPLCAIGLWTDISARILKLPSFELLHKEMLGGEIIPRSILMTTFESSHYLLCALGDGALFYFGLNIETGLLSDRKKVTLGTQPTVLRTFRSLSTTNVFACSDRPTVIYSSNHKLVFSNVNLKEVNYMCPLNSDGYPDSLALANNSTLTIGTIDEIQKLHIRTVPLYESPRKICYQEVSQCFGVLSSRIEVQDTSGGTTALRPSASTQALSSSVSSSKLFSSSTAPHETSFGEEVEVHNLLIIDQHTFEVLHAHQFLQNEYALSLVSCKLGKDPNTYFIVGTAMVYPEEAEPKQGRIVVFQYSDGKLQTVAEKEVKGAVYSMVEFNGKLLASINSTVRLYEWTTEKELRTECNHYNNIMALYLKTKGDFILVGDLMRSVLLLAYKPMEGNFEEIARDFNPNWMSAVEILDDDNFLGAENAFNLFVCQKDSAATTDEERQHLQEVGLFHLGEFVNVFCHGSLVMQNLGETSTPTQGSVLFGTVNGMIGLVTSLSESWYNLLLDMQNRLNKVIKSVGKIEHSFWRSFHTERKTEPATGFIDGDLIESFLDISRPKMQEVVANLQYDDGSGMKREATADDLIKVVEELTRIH

Q: For `CN(C)C(=O)c1cccc(C(=O)N2CC3(CC(=O)NC3=O)C2)c1` [Compound A5], which IC50 is on record?
A: The IC50 was 1 to 10 µM.

Q: Which IC50 does the source give for `CN(C)C(=O)c1ccc(C(=O)N2CC3(CC(=O)NC3=O)C2)cc1` [Compound A4] here?
A: Its IC50 is 1 to 10 µM.

Q: Which IC50 does the source give for `NC(=O)c1sc2ccccc2c1C(=O)N1CC2(CC(=O)NC2=O)C1` [Compound A10] here?
A: The IC50 was 0.1 to 1 µM.

Q: Which IC50 does the source give for `O=C1CC2(CN(C(=O)c3c(C(=O)NC4CCCCC4)sc4ccccc34)C2)C(=O)N1` [Compound A7] here?
A: Its IC50 is less than 0.1 µM.

Q: `O=C1CC2(CN(C(=O)c3c(C(=O)N4CCNCC4)sc4ccccc34)C2)C(=O)N1` [Compound A8] was tested. Which IC50 did it give?
A: Its IC50 is less than 0.1 µM.

Q: With `CN(C)C(=O)c1[nH]c2ccccc2c1CN1CC2(CC(=O)NC2=O)C1` [Compound A17] as the molecule, how does the IC50 read?
A: The IC50 was 100 to 200 µM.

Q: Which IC50 does the source give for `CN(C)C(=O)c1c(C(=O)N2CC3(CC(=O)NC3=O)C2)sc2ccccc12` [Compound A2] here?
A: Its IC50 is 0.1 to 1 µM.

Q: For `CN(C)C(=O)c1c(C(=O)N2CC3(CC(=O)NC3=O)C2)c2ccccc2n1C` [Compound A19], which IC50 is on record?
A: The IC50 was less than 0.1 µM.

Q: For `CN(C)C(=O)c1sccc1C(=O)N1CC2(CC(=O)NC2=O)C1` [Compound A15], which IC50 is on record?
A: Its IC50 is 1 to 10 µM.

Q: `O=C1CC2(CN(C(=O)c3csc4ccccc34)C2)C(=O)N1` [Compound A13] was tested. Which IC50 did it give?
A: Its IC50 is 1 to 10 µM.

Q: How did the IC50 turn out when `CN(C)C(=O)c1[nH]c2ccccc2c1C(=O)N1CC2(CC(=O)NC2=O)C1` [Compound A3] was run?
A: The IC50 was less than 0.1 µM.

Q: Which IC50 does the source give for `O=C1CC2(CN(C(=O)c3c(C(=O)N4CC5(COC5)C4)sc4ccccc34)C2)C(=O)N1` [Compound A9] here?
A: The IC50 was less than 0.1 µM.

Q: For `CC(=O)N1CCN(C(=O)c2sc3ccccc3c2C(=O)N2CC3(CC(=O)NC3=O)C2)CC1` [Compound A11], which IC50 is on record?
A: Its IC50 is less than 0.1 µM.

Q: With `O=C1CC2(CN(C(=O)c3cc4ccccc4s3)C2)C(=O)N1` [Compound A12] as the molecule, how does the IC50 read?
A: Its IC50 is 1 to 10 µM.

Q: `CN(C)C(=O)c1cscc1C(=O)N1CC2(CC(=O)NC2=O)C1` [Compound A6] was tested. Which IC50 did it give?
A: Its IC50 is 0.1 to 1 µM.

Q: Which IC50 does the source give for `COC(=O)c1ccccc1C(=O)N1CC2(CC(=O)NC2=O)C1` [Compound A14] here?
A: The IC50 was 0.1 to 1 µM.

Target: T1, CRBN/DDB1 protein
Assay: Isothermal titration calorimetry (ITC) detection of compound binding to CRBN/DDB1
Conditions: 25° C., pH 7.0, 10 μM protein, 100 μM compound, one set of sites model
Method: Experiment 2 Isothermal Titration Calorimetry (ITC) Detection of Compound Binding to CRBN/DDB1
6.1 mL of 200 mM disodium hydrogen phosphate aqueous solution and 3.9 mL of 200 mM sodium dihydrogen phosphate aqueous solution were mixed to obtain 200 mM PB buffer (pH 7.0). Then, 5397 μL of deionized water was mixed with 600 μL of 200 mM PB buffer and 3 μL of 10% Tween 20 aqueous solution to prepare a detection buffer with a pH of 7.0.
The protein storage solution was subjected to buffer exchange using the detection buffer prepared above according to the instruction of the Zeba™ Spin Desalting Columns (Thermo Fisher Scientific Inc., #89882). After the exchange was completed, ultraviolet (UV) absorption of the protein solution at OD280nm was measured using the microplate reader (BMG LABTECH Inc., PHERAstar FSX), and the concentration was calculated. Based on the measured concentration, the protein was diluted to 10 μM with the detection buffer, and added with DMSO to a final concentration of 1%, resulting in a total volume of 300 μL. After a brief centrifugation at room temperature, the solution was collected for later use.
The compound powder was dissolved in DMSO and diluted to 100 μM with the detection buffer prepared above. The DMSO concentration was adjusted to a final concentration of 1% with a total volume of 100 μL. […]

Q: Which Kd does the source give for `CN(C)C(=O)c1[nH]c2ccccc2c1C(=O)N1CC2(CC(=O)NC2=O)C1` [Compound A3] here?
A: The Kd was 0.015 µM.
